Results: US20170240556A1, “BIFLUORODIOXALANE-AMINO-BENZIMIDAZOLE KINASE INHIBITORS FOR THE TREATMENT OF CANCER, AUTOIMMUNEINFLAMMATION AND CNS DISORDERS” (4SC DISCOVERY GMBH, priority 2012, published 2017)

Experiments:
[1] = tested on: Hedgehog signaling pathway; assay: Hedgehog reporter assay (Gli Reporter - NIH3T3 Cell Line); format: cell-based; conditions: Mus musculus; Gli reporter NIH3T3 cells, murine SHH stimulation, 24 h; read-out: HH Assay
Experimental: In order to investigate the potency of test compounds to inhibit the Hedgehog signaling pathway, a Gli-Reporter assay was performed.
The “Gli Reporter—NIH3T3 Cell Line” contains the firefly luciferase gene under the control of Gli responsive elements stably integrated into murine NIH3T3 cells (cells purchased from Amsbio). The luciferase expression correlates with activation of the hedgehog signaling pathway. This cell line is validated for its response to stimulation with murine Sonic Hedgehog and to treatment with inhibitors of the hedgehog signaling pathway. A multiplexed viability assay was used to discriminate inhibition on the pathway activity from cell toxicity.
Growth Medium: DMEM, 10% Calf Serum, 1% Penicillin/Streptomycin 500 μg/ml Geneticin (G418 Stock 50 mg/ml).
25.000 cells per well were seeded into a white 96 well plate in 100 μl growth medium and incubated over night at 37° C. and 5% CO2. After removing the supernatant the test compounds and controls (known GLI inhibitor, e.g. GANT-61) were added in different concentrations in a final volume of 45 μl and incubated for 1 h at 37° C. and 5% CO2. For the stimulation of the Hedgehog pathway 5 μl of 10 μg/ml concentrated murine sonic hedgehog (SHH) was added to the cells. A final concentration of 1 μg/ml mSHH and 0.1% DMSO was reached per well. After incubation for 24 h at 37° C. the cells were investigated for viability and reporter activity.
Viability: For the determination of the viability of the treated cells the CellTiter-Fluor Kit from Promega was used. Essentially, only proteases of viable cells are able to cleave the cell-permeant substrate Gly-Phe-AFCoumarin (GF-AFC). By this cleavage the fluorescent AFC is set free and can be detected in a fluorescence reader. For this assay 10 μl of GF-AFC substrate (CellTiter-Fluor, Promega #G6082) was diluted in 2 ml assay buffer from the CellTiter-Fluor Kit and 10 μl of this dilution was added per well to the cells and incubated for 30 min at 37° C. The fluorescence was measured with excitation at 380-400 nm and emission at 505 nm.
Reporter activity: The firefly luciferase reporter activity was detected with the ONE-Glo™ Luciferase Assay System from Promega. For this assay 50 μl ONE-Glo luciferase reagent (Promega #E6120, contains cell lysis buffer and luciferin) was added to each well and incubated at room temperature for 5 min. Luminescence was detected in a plate reader and served as a degree for reporter activity.

[2] = biological target: Casein kinase 1 delta (CSKN1D) (Homo sapiens, UniProt P48730); assay: Casein kinase assay, CK1 delta; format: biochemical; conditions: recombinant CSKN1D 5 nM, ATP 10 μM
Casein kinase 1 delta (CSKN1D), sequence (P48730 whole entry): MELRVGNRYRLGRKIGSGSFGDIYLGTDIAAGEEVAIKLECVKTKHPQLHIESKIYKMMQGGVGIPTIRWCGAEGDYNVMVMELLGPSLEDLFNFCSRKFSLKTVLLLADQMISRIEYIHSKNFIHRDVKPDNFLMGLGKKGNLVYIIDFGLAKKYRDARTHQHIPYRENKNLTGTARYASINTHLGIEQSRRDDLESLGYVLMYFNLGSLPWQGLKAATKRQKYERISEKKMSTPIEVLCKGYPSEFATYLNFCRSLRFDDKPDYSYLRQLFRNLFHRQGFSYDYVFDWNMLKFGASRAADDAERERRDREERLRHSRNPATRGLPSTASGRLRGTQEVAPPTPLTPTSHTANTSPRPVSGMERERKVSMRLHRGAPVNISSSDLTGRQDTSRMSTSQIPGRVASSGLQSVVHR

[3] = biological target: Casein kinase 1 epsilon (CSKN1E) (Homo sapiens, UniProt P49674); assay: Casein kinase assay, CK1 epsilon; format: biochemical; conditions: recombinant CSKN1E 30 nM, ATP 10 μM
Casein kinase 1 epsilon (CSKN1E), sequence (P49674 whole entry): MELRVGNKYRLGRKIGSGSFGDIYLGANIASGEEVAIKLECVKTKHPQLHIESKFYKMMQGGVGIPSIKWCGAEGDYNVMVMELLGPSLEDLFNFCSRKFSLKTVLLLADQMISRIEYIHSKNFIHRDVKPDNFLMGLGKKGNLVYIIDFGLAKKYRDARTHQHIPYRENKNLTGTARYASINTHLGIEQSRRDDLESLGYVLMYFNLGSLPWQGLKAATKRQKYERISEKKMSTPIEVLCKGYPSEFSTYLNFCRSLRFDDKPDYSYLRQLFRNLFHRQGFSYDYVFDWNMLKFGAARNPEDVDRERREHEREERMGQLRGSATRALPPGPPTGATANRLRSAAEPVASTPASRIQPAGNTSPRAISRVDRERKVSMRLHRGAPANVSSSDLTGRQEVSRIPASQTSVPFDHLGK

[4] = tested on: Wnt/β-catenin signaling pathway; assay: Wnt reporter assay (CellSensor LEF/TCF-bla FreeStyle 293F cells); format: cell-based; conditions: Homo sapiens; LEF/TCF-bla 293F cells, LiCl and mWnt3a stimulation
Experimental: The Wnt reporter assay was performed in stably transfected human HEK293 cells. Wnt signaling was induced by administration of Wnt3a protein and read out by β-Lactamase mediated cleavage of CCF4-AM and subsequent fluorescent detection.
CellSensor LEF/TCF-bla FreeStyle 293F cells (invitrogen #K1677) contain a beta-lactamase reporter gene under control of the β-catenin/LEF/TCF binding elements stably integrated into FreeStyle 293F cells. This cell line can be used to detect antagonists of the Wnt/β-catenin signaling pathway when stimulated by mouse Wnt3a or LiCl. The detection of beta-lactamase is possible with LiveBLAzer FRET—B/G Loading Kit (invitrogen #K1095) with CCF4-AM as subtrate.
Culture Medium: DMEM Medium +10% dialyzed FBS (PAN 2102-P290310), +1% NEAA (PAA M11-003), +1% P/S (Penicillin/Streptomycin, PAA P11-010) +25 mM HEPES (PAA S11-001), +5 μg/ml Blasticidin (PAA P05-017).
Cells (CellSensor LEF/TCF-bla FreeStyle 293F, invitrogen K1677) were split with Culture Medium to reach a confluence at the beginning of the assay of 80-90%.
At start of the assay, cells were harvested from culture and resuspend in assay medium at density of 0,66*10̂6 cells/ml. Subsequently, 60μ1 cell suspension were pipetted in each well of a Poly-D-Lysine 96 well Plate (BD #354640, vertical rows are marked 1 through 12, horizontal lanes are marked A through H),
Plates were subsequently incubated at 37° C. for at least 2 h.
To stimulate with Wnt3a, overnight prestimulation of Wnt signalling pathway with LiCl is necessary. Subsequently, an 8M aqueous LiCl solution was diluted 1:200 in assay medium, and 30 μl of said diluted LiCl solution was plated into the appropriate wells (see below pipetting scheme). Plates were then incubated at 37° C. over night.
Subsequently, compounds and controls were prepared as follows: mWnt3a (R&D 1324-WN, dissolved in PBS+0.1% BSA to 40 μg/ml) was diluted 1:100 in assay medium (=400 ng/ml). Compounds (Cpd) were diluted to a concentration of 10 mM in DMSO to prepare dilution series in assay medium (final concentrations 30 μM, 10 μM, 3 μM, 1 μM, 0.3 μM, 0.1 μM, 0.03 μM and 0.01 μM), which were pipetted into the appropriate wells (see below pipetting scheme). For each dilution of each compound, 3 replicates were tested. Final DMSO concentration was 0.3%.
LiCl and mWnt3a stimulated cells were used as High control (HC), unstimulated cells were used as low control, a blank was prepared from cell free medium plus mWnt3a, and a functional control was prepared with a known Wnt inhibitor (e.g. PKF118-310), final concentrations were as above.
Subsequently, the well was incubated for 5 h at 37° C.
At t=23 hours, FRET reagent mix (Loading Kit with CCF4-AM, Life Technologies #K1096) was prepared; per plate: 138 μl Solution B, 13.8 μl FRET-reagent, and 2300 μl Solution C. 24 μl FRET reagent mix were plated to each well, subsequently plates were incubated for at least 2 h in the dark (it is possible to incubate over night). Subsequently, plates were measured in the BMG FluorStar® plate reader at an emission waveltengths of 460 and 520 nm and with an excitation wavelength of 405 nm.
To determine potential cytotoxicity of the compounds, plates were centrifuge and the supernatant was discarded by dumping the plates. Subsequently, 100 μl Opti-MEM and 50 μl ViaLight (Lonza #LT07-321) Lysis Buffer were added to each well, followed by incubation for 10 min at room temperature (25° C.). Subsequently, 100 μl ViaLight reagent were added to each well, followed by incubation for 2 min at room temperature (25° C.) in the dark. Optionally, 200 μl of the obtained suspension were transferred to a white 96 well plate. The luminescence was measured with a Tecan Ultra plate reader.

IC50 [1]	IC50 [2]	IC50 [3]	IC50 [4]	SMILES
500 to 1000 nM	< 200 nM	< 200 nM	< 5000 nM	Cc1nc(-c2cccc(C(=O)Nc3nc4cc5c(cc4[nH]3)OC(F)(F)O5)c2)no1 [Compound 137, N-(2,2-difluoro-5H-[1,3]dioxolo[4′,5′:4,5]benzo[1,2-d]imidazol-6-yl)-3-(5-methyl-1,2,4-oxadiazol-3-yl)benzamide]
1000 to 15000 nM	< 200 nM	< 200 nM	5000 to 20000 nM	O=C(Nc1nc2cc3c(cc2[nH]1)OC(F)(F)O3)c1cccc(-n2cnnn2)c1 [Compound 149, N-(2,2-difluoro-5H-[1,3]dioxolo[4′,5′:4,5]benzo[1,2-d]imidazol-6-yl)-3-(1H-tetrazol-1-yl)benzamide]
–	< 200 nM	–	< 5000 nM	O=C(Nc1nc2cc3c(cc2[nH]1)OC(F)(F)O3)c1cccc(-c2nccs2)c1 [Compound 2B, N-(2,2-difluoro-5H-[1,3]dioxolo[4′,5′:4,5]benzo[1,2-d]imidazol-6-yl)-3-(thiazol-2-yl)benzamide]
–	< 200 nM	< 200 nM	< 5000 nM	COc1cc(OC)cc(C(=O)Nc2nc3cc4c(cc3[nH]2)OC(F)(F)O4)c1 [Compound 1B, N-(2,2-difluoro-5H-[1,3]dioxolo[4′,5′:4,5]benzo[1,2-d]imidazol-6-yl)-3,5-dimethoxybenzamide]
500 to 1000 nM	< 200 nM	< 200 nM	< 5000 nM	O=C(Nc1nc2cc3c(cc2[nH]1)OC(F)(F)O3)c1cccc(-c2ncc[nH]2)c1 [Compound 140, N-(2,2-difluoro-5H-[1,3]dioxolo[4′,5′:4,5]benzo[1,2-d]imidazol-6-yl)-3-(1H-imidazol-2-yl)benzamide]
≤ 500 nM	< 200 nM	–	< 5000 nM	COc1cc(C(=O)Nc2nc3cc4c(cc3[nH]2)OC(F)(F)O4)ccc1N [Compound 9B, 4-amino-N-(2,2-difluoro-5H-[1,3]dioxolo[4′,5′:4,5]benzo[1,2-d]imidazol-6-yl)-3-methoxybenzamide]
–	< 200 nM	< 200 nM	< 5000 nM	Cc1nnnn1-c1cccc(C(=O)Nc2nc3cc4c(cc3[nH]2)OC(F)(F)O4)c1 [Compound 148, N-(2,2-difluoro-5H-[1,3]dioxolo[4′,5′:4,5]benzo[1,2-d]imidazol-6-yl)-3-(5-methyl-1H-tetrazol-1-yl)benzamide]
